Data as given in patent publication US20240139167A1, “LYSOSOME-ASSOCIATED MEMBRANE PROTEIN TARGETING COMPOUNDS AND USES THEREOF” (HADASIT MEDICAL RESEARCH SERVICES AND DEVELOPMENT LTD., priority 2021, published 2024).
Entries after “also recorded” stand apart in the source; their conditions may differ.

Legend:
Gbe^ys/ys mice = experiment: Histological PG (PAS after diastase) and biochemical glycogen determination in tissues; type: in vivo
Description: FIGS. 2A-2C include images and graphs of histopathological effects of Compound 1 and its pharmacokinetics: right panel present images of indicated tissues of sacrificed mice and stained for PG (arrows) with PAS following treatment with diastase; left panel, presents bar graphs quantifying PAS staining, based on analysis of 4 sections from each tissue in n=2 wild type, n=7 Gbe^ys/ys vehicle-treated, and n=9 Compound 1-treated mice (2A); bar graph quantifying total glycogen in the respective tissues (2B); graph of Compound 1pharmacokinetics (2C); 9 months old Gbe^ys/ys mice were SC-injected with 150 μL of Compound 1 at 250 mg/kg. Mice were sacrificed 30-, 60-, 90-, and 210-min post injection and the indicated tissues were removed, as well as 200 μL of serum drawn. […] Shown are means and SEM of results obtained from n=3 mice at each time point.
Brain, heart, muscle, nerve fascicles (peripheral nerves), and liver tissues from wt and Compound 1 and vehicle treated Gbe^ys/ys animals were separated to characterize the histopathological effects of Compound 1. Tissues were extracted, fixed, embedded in paraffin, and sectioned. After deparaffinization, sections were treated for 5 min with 0.5% diastase to digest non-polyglucosan glycogen, leaving behind polyglucosan. Sections were then washed, stained for polyglucosan with PAS and counterstained with hematoxylin, and analyzed by light microscopy, all as previously described. […] Following digestion, total glycogen was determined based on the glucose content using the Sigma GAGO20 kit.
This information is important for determining whether the expected mode of action of Compound 1 discovered ex vivo -reduction of polyglucosan levels in fibroblasts — also takes place in vivo and if so in which tissues. […] Following diastase treatment to digest non-polyglucosan glycogen, leaving behind polyglucosan, sections were stained for polyglucosan with periodic acid-Schiff s (PAS) reagent, counterstained with hematoxylin and analyzed by light microscopy.

[1] = test system: APBD and HC skin fibroblasts; experiment: Image-based phenotyping (IBP); type: cell-based, human
Description: FIGS. 7A-7F include graphs of IBP parameters in HC and APBD fibroblasts and variable importance plot as an output of the random forest classification performed on the different variables (cell features) indicated on the x-axis. […] The different comparisons analyzed (comp A=Compound 1) are shown (7B); bar graphs of lysosomal parameters affected by Compound 1 in APBD and HC cells as analyzed by IBP (7C); Volcano plots of the proteins affected by APBD and Compound 1 under starvation and glycogen burden conditions (7D); Venn diagrams of proteins down-modulated by APBD and up modulated by Compound 1 and vice versa under starvation (48) and glycogen burden (48+24) conditions (7E); and gene ontology of proteins up-modulated (left) and down-modulated (right) by Compound 1 (7F).
APBD skin fibroblasts were seeded at 1,000 cells/well and cultured in specialized microscopy-grade 96-well plates (Grenier Bio-One, Germany). Following the different treatments, a mix of Thermo Scientific cellular fluorescent dyes in PBS was added to each well for 30 min at 37° C. in a 5% CO2 incubator. This mix (FIGS. 4C and 7B) included DAPI (1 μg/ml, nuclear (DNA) stain), MitoTracker Green (500 nM, potential-independent mitochondrial stain), TMRE ([…] mitochondrial stain), and Cell Mask Deep Red (0.5 μg/ml, cytosol stain). In FIG. 7C, only lysosomes were stained with LysoTracker Deep Red (75 nM). Cells were then fixed with 4% paraformaldehyde (PFA), washed with PBS and plates were transferred to an InCell2200 (GE Healthcare, U.K.) machine for image acquisition at 40× magnification. The output produced was based on comparative fluorescence intensity. Object segmentation was carried out using multi-target analysis in the GE analysis workstation to identify the nuclei and cell boundary. […]
As a first step, the inventors required a classification method, both wholistic and feature-specific, which would enable to quantify differences between APBD and HC cells and thus to estimate the restorative effect of Compound 1 on APBD cells. […]

[2] = test system: PD patient-derived skin fibroblasts; experiment: Autophagic flux in Pompe disease fibroblasts; type: cell-based, human; details: serum starved, 50 μM, 24 h
Experimental: FIG. 15 includes a micrograph and a vertical bar graph showing autophagic flux in PD patient-derived skin fibroblasts, serum starved and treated (or not) with 50 μM 144DG11 (indicated as comp. A).
144DG11 can activate autophagy in the lysosomal storage disease (LSD) Pompe disease (PD) in which autophagy is perturbed (FIG. 15). […] This ratio serves as the most accepted marker for autophagy and autophagic flux. […] These observations indicate that, as in the GSD APBD, 144DG11 can activate autophagy also in the typical LSD PD in which autophagy is disturbed.

PD primary fibroblasts = experiment: PAS staining of glycogen in Pompe disease fibroblasts; type: cell-based, human; details: 24 h, 50 μM; listed as 144DG11
Description: Yellow, Calcein used for cell segmentation, Blue, DAPI nuclear stain.

[3] = PAS after diastase, sacrifice at 9.5 months

For `COCCN(Cc1sccc1C)C(=O)c1cc(C)nc(O)c1` [Compound 1], the muscle polyglucosans (Gbe^ys/ys mice; [3]) was “no apparent effect”, the “polyglucosan levels in brain, liver, heart, and peripheral nerve” value (Gbe^ys/ys mice; [3]) was “significant reduction in polyglucosan levels” and the “total glycogen levels, determined biochemically” value (Gbe^ys/ys mice; same tissues) was “correspondingly affected”. For the same molecule, the “IBP signature, features affected” value [1] was “mostly affected nuclear and mitochondrial membrane potential (TMRE) parameters”, the lysosomal size ([1]; APBD cells) was “reduced lysosomal size” and the “mitochondrial membrane potential (MMP)” value ([1]; APBD cells) was “hyperpolarized”. The “sensitivity to vinblastine (increase in the LC3II/LC3I ratio)” value [2] was “increased” and the “glycogen (PAS staining)” value (PD primary fibroblasts) was “reduce glycogen; also recorded: significantly lowered PAS staining”.
